Measurements taken from US9642780B2, “Detection and removal of carious dentin tissue” (RLS Global AB, priority 2011, dated 2017).
“Also recorded” adds a separate entry of the source.

What was measured:
[1] = tested on: carious dentin tissue of a pre molar tooth; test: Staining of a pre molar tooth cavity with Alexa 594 and removal with Carisolv and hand instrument
Procedure: Carious dentin tissue of a pre molar tooth was treated with Carisolv® to obtain a cavity and subsequently stained with an aqueous solution of the hydrazine derivative Alexa 594.
The concentration of the aqueous solution of the hydrazine derivative Alexa 594 was 15-50 mM. […] Carisolv® was added to the cavity and excavation took place with a hand instrument from Mediteam Dental AB to reach a carious free level. […] A dentist performed tactile control of this surface and confirmed that the surface was free of caries. […] The slightly stained surface was subjected to treatment with Carisolv® followed by excavation with a hand instrument. […] It was concluded that a hydrazine derivative such as Alexa 594 can be used in combination with a chemical means for carious dentin tissue such as Carisolv® for selective detection and removal of carious dentin tissue.

[2] = tested on: carious dentin tissue of a pre molar tooth; test: Staining of a pre molar tooth with Alexa 594 and removal with a dentist's drill; settings: 15-50 mM aqueous solution, drilling and staining repeated several times
Procedure: Carious dentin tissue of a pre molar tooth stained with an aqueous solution of the hydrazine derivative Alexa 594 in a concentration of 15-50 mM was subjected to mechanical treatment by a dentist's drill until no staining could be visually detected. […] The stained surface was subjected to drilling until no staining could be visually detected. A dentist examined the surface visually and with a tactile instrument and concluded that the surface was free of caries. […] Again, drilling of the stained surface took place until no staining could be observed. […] Drilling and staining as described above in this example was repeated several times. […] It was concluded that selective detection and removal of carious dentin tissue using a hydrazine derivative in combination with a dentist's drill was not possible. […] This is in contrast to the successful selective detection and removal of carious dentin tissue using a hydrazine derivative in combination with a chemical means for treatment of carious dentin tissue as described in Example 5.

[3] = tested on: carious tissue in caries infected tooth slices; test: Staining of caries infected tooth slices with colours, then washing with MQ water, NaCl and NaOH; settings: for staining of the tooth slice after NaCl and NaOH (Day 4): after NaCl 1 M and NaOH 0.5 M over night, visible light, UV or fluorescence microscopy; for kind of binding to carious tissue in infected teeth (conclusion): concluded from staining after NaCl and NaOH washes
Procedure: This experiment aimed to see if the added colours SEEK, Acid red 1, Lucifer Yellow, a combination of Lucifer Yellow and Acid red 1, or 5-(2-2-hydrazinyl-2-oxoethylthio)acetamido)-2-(3-hydroxy-6-oxo-6H-xanthen-9-yl)benzoic acid, Alexa Fluor® 594 and Alexa 350 bind to the surface of caries or not, after excavation down to a clinically caries free denoted surface. Experiments were performed during 4 days.
Whole caries infected tooth was added to an ortho acryl gel, which after hardening was used as a holder prior to sawing (saw of brand Zaw Micro Tone, German). Slices, having a thickness of 150 μm, were left over night in each colour to be tested (Day one). On the second day, the colours were washed out by rinsing the slices with MQ water and the teeth sections were photographed under either a microscope (6.7×; visible light), in UV (no microscope) or under a fluorescence microscope (100×). Thereafter, an aqueous salt solution (NaCl, 1 M) was added to the slices and incubated over night. On the third day the slices were washed with MQ water and thereafter the same detection procedures were used as described above. Finally the tooth slices were exposed to an aqueous solution of NaOH (0.5 M) over night. The washing and detection path were then repeated as described previously (Day 4).

carious dentin tissue [4] = test: Rinsing of carious dentin tissue labelled with a dye
healthy dentin tissue [5] = test: FTIR of healthy dentin tissue treated with Lucifer Yellow; set-up: species or system human; settings: Lucifer Yellow 13 mM aqueous, overnight, no peak at 1740 cm−1 in any sample
Excerpt: (§1) Extracted permanent human teeth with no previous dental restorations were selected due to their severe carious tissue status and analysed with FTIR within one week after extraction. The outermost part of the carious dental lesions was removed. The remaining dental carious tissue was divided into two layers; one outer layer with discoloured, soft and infected dental carious tissue and one inner layer that was excavated down to the observed uncoloured hard surface of the remaining healthy dentin controlled by tactile procedures.
(§2) Healthy dentin tissue and carious dentin tissue from the innermost layer were collected. This healthy dentin tissue sample and carious dentin tissue sample were then each divided into three samples.
(§3) The healthy dentin tissue sample (26 mg) was divided and treated as follows. […] Fluorescence of bounded hydrazine derivate Lucifer Yellow was checked by a UV lamp. […] The third sample, hereinafter denominated sample S3, (7 mg) and the last procedure was treated with NaBH4 (0.5 M in ethanol) and washed with concentrated ethanol to reduce aldehydes and ketones before the addition of an aqueous solution of the hydrazine derivate Lucifer Yellow (13 mM), repeated rinsing with purified water before dried and analysed.
(§4) Thus, in total 6 samples (three from the healthy dentin tissue and three from the carious dentin tissue) were analysed with FTIR within one week after extraction. […]

carious dentin tissue [6] = test: FTIR of carious dentin tissue treated with Lucifer Yellow; set-up: species or system human
Excerpt: as §1, §2
as §3, with “analysed. […]” for “analysed.”
as §4

carious dentin tissue [7] = test: TOF-SIMS of carious dentin tissue treated with Lucifer Yellow
Procedure: FTIR-ATR and TOF-SIMS analyses were performed on a sample group consisting of carious tissue inner most layers selected and estimated with an exactness of a working dentist. Samples were pooled from 4-6 teeth of inner layer of carious tissue (37 mg). The pooled sample was divided into two subgroups where one was exposed to the hydrazine derivate Lucifer Yellow and further analysed with TOF-SIMS and the other only analysed with FTIR-ATR. An aqueous solution of the hydrazine derivate Lucifer Yellow (1.8 mM) was added to the inner layer carious tissue (19 mg) and after 1 hour exposure washed with an aqueous solution of NaOH (0.5 M) and purified water before dried over vacuum. Events prolonged under a couple of hours from extraction to excavation to the drying and milling of the substances. Both FTIR-ATR and TOF-SIMS followed. FTIR-ATR was performed as described in Example 3 above. […] Each sample was attached to double side tape and analysed with a TOF-SIMS instrument (TOF-SIMS IV, CAMECA/IONTOF, GmbH, Germany). Positive secondary ion mass spectra were recorded from different areas of the sample at a size of […] and separated in a mass analyser and next compared with known mass spectra from the Ion Spec application (IonTof, GmbH, Germany, ver. 4.1) linked with the TOF-SIMS instrument. Negative secondary ion mass spectra were also recorded but gave no further information. […]

healthy dentin tissue [8] = test: TOF-SIMS of healthy dentin tissue treated with Lucifer Yellow; settings: positive mass spectra, treated similar to untreated

“6-(2-carboxy-5-(hydrazinecarbonyl)phenyl)-1,2,2,10,10,11-hexamethyl-2,10-dihydro-1H-pyrano[3,2-g]diquinoline-11-ium-4,8-diyl)methanesulfonate [Alexa Fluor® 594]” was tested, and the “sensitivity of caries detection compared with tactile control by a dentist” value [1] was “better and more sensitive method for detecting carious dentin tissue than tactile control”, the “staining of the cavity, first staining” value ([1]; 15-50 mM aqueous solution, cavity obtained with Carisolv) was “intense dark bluish colour” and the “staining of the surface after second Carisolv treatment and excavation” value ([1]; final attempt to stain) was “no staining took place”. The “staining of the surface after first Carisolv treatment and excavation” value ([1]; surface judged free of caries by dentist's tactile control) was “very slight staining at the center of the cavity”, the “staining of the surface after drilling until no staining visible” value [2] was “staining always took place after the drilling had been performed” and the “staining of the tooth slice after NaCl and NaOH (Day 4)” value (“staining of the tooth slice … (Day 4)” below) [3] was “still contained colourants”. The “staining of the tooth slice … (Day 4)” value ([3]; listed as Alexa Fluor 594®) was “staining” and the “kind of binding to carious tissue in infected teeth (conclusion)” value (“kind of binding to carious tissue” below) [3] was “bind irreversibly”.
For Cc1c(CC(=O)NN)c(=O)oc2cc(N)c(S(=O)(=O)O)cc12 [Alexa 350], the “staining of the tooth slice … (Day 4)” value [3] was “still contained colourants” and the “kind of binding to carious tissue” value [3] was “bind irreversibly”.
CC(=O)Nc1cc(S(=O)(=O)[O-])cc2cc(S(=O)(=O)[O-])c(/N=N/c3ccccc3)c(O)c12.[Na+].[Na+] [Acid red 1, reference compound] was tested, and the “effect of rinsing on dye bonded to carious dentin tissue” value (carious dentin tissue [4]) was “release of the dye bonded to the carious dentine tissue”, the “staining of the tooth slice after incubation with 1 M NaCl” value ([3]; 150 μm slices left over night in colour, rinsed with MQ water, NaCl 1 M over night) was “only little staining remained” and the “staining of the tooth slice … (Day 4)” value [3] was “no colouring of the slice treated with Acid red 1 could be detected using visible light and barely with microscope”. For the same compound, the “kind of binding to carious tissue” value [3] was “binds in a reversible way”.
For NNC(=O)NN1C(=O)c2cc(S(=O)(=O)O)cc3c(N)c(S(=O)(=O)O)cc(c23)C1=O [Lucifer Yellow], the “reaction with healthy dentin tissue” value (healthy dentin tissue [5]) was “no reaction takes place”, the “reaction with carious dentin tissue” value (carious dentin tissue [6]; FTIR, Lucifer Yellow 13 mM aqueous, overnight, peak at 1740 cm−1 no longer present) was “reaction has taken place” and the “selectivity of reaction, carious versus healthy dentin tissue (FTIR)” value (carious dentin tissue [6]; concluded from FTIR of samples S1-S6) was “selectively reacts with carious dentin tissue”. For the same compound, the “bonding to carious dentin tissue (TOF-SIMS)” value (carious dentin tissue [7]; Lucifer Yellow 1.8 mM, 1 hour, washed with NaOH 0.5 M, positive spectra, repeated difference of 106 mass units) was “covalently bound to the carious tissue”, the “selectivity of reaction, carious versus healthy dentin tissue (TOF-SIMS)” value (carious dentin tissue [7]; concluded from TOF-SIMS spectra) was “selectively reacts with carious dentin tissue” and the “reaction with healthy dentin (TOF-SIMS)” value (healthy dentin tissue [8]) was “did not react with healthy dentin”. For the same compound, the “staining of the tooth slice … (Day 4)” value [3] was “still contained colourants” and the “kind of binding to carious tissue” value [3] was “bind irreversibly”.
With NNC(=O)CSCC(=O)Nc1ccc(-c2c3ccc(=O)cc-3oc3cc(O)ccc23)c(C(=O)O)c1 [5-(2-2-hydrazinyl-2-oxoethylthio)acetamido)-2-(3-hydroxy-6-oxo-6H-xanthen-9-yl)benzoic acid] the “staining of the tooth slice … (Day 4)” value [3] was “still contained colourants; also recorded: staining” and the “kind of binding to carious tissue” value [3] was “bind irreversibly”.
